Where two headings read alike, the source gives them in different places.
Assays:
hCA I = hCA I (Homo sapiens, UniProt P00915); assay: stopped-flow CA catalysed CO2 hydration assay, hCA I
hCA II = hCA II (Homo sapiens, UniProt P00918); assay: stopped-flow CA catalysed CO2 hydration assay, hCA II
hCA IV = hCA IV (Homo sapiens, UniProt P22748); assay: stopped-flow CA catalysed CO2 hydration assay, hCA IV
hCA VII = hCA VII (Homo sapiens, UniProt P43166); assay: stopped-flow CA catalysed CO2 hydration assay, hCA VII
[1] = read-out: hCA Ki (μM) hCA I, recombinant enzyme, stopped-flow CO2 hydration, 15 min preincubation, pH 8.3
[2] = read-out: hCA Ki (μM) hCA II, recombinant enzyme, stopped-flow CO2 hydration, 15 min preincubation, pH 8.3
[3] = read-out: hCA Ki (μM) hCA IV, recombinant enzyme, stopped-flow CO2 hydration, 15 min preincubation, pH 8.3
[4] = read-out: hCA Ki (μM) hCA VII, recombinant enzyme, stopped-flow CO2 hydration, 15 min preincubation, pH 8.3
[5] = within the panel hCA I, II, IV, VII

hCA I, sequence (P00915 whole entry): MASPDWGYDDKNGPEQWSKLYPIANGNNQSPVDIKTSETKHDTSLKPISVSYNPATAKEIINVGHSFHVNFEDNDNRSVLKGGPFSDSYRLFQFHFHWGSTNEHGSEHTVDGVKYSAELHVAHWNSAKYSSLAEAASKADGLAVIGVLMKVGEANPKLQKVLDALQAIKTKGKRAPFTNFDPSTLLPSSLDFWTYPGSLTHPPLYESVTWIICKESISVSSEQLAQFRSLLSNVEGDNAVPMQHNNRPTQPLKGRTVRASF
hCA IV, sequence (P22748 19-312): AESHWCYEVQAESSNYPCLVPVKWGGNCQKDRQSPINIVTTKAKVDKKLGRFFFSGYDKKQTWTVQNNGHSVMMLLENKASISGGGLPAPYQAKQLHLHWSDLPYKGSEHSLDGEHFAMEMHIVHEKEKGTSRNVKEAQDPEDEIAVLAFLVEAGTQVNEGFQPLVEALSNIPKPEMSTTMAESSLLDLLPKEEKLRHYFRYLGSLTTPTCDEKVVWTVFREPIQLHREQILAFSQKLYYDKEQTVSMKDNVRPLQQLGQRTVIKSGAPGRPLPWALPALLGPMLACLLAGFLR
hCA VII, sequence (P43166 whole entry): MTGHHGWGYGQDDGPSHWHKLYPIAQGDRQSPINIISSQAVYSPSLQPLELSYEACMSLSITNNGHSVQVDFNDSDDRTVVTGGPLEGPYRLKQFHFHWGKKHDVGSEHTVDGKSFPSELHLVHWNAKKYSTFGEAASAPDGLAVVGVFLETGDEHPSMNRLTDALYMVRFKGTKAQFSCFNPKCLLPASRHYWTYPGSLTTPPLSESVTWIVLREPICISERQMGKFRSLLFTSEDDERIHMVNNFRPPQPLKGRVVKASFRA

SMILES | melting point [°C] | Ki (hCA I) [µM] | Ki (hCA II) [µM] | Ki (hCA IV) [µM] | Ki (hCA VII) [µM] | Ki (hCA I; [1]) [µM] | Ki (hCA II; [2]) [µM] | Ki (hCA IV; [3]) [µM] | Ki (hCA VII; [4]) [µM] | isoform selectivity for hCA II, in words (hCA II; [5]) | hCA IV inhibition, in words (hCA IV) | isoform selectivity for hCA IV, in words (hCA IV; [5])
Cc1cc(C)n(-c2cc(S(N)(=O)=O)ccc2C)n1 [Compound 7e, 3-(3,5-Dimethyl-^1H-pyrazol-1-yl)-4-methylbenzenesulfonamide] | 112 to 114 | 4.21 | 0.381 | > 10 | 0.194 | – | – | – | – | – | – | –
COc1ccc(-n2nc(C)cc2C)cc1S(N)(=O)=O [Compound 7g, 5-(3,5-Dimethyl-^1H-pyrazol-1-yl)-2-methoxybenzenesulfonamide] | 195 to 197 | > 10 | > 10 | > 10 | > 10 | – | – | – | – | – | – | –
Cc1ccc(S(N)(=O)=O)cc1-n1cc(S(N)(=O)=O)cn1 [Compound 9i, 1-(2-Methyl-5-sulfamoylphenyl)-^1H-pyrazole-4-sulfonamide] | 185 to 188 | – | – | – | – | 0.55 | 0.03 | 7.86 | 0.014 | – | – | –
Cc1ccc(-n2cc(S(N)(=O)=O)cn2)cc1S(N)(=O)=O [Compound 9e, 1-(4-Methyl-3-sulfamoylphenyl)-^1H-pyrazole-4-sulfonamide] | 217 to 220 | 0.3 | 0.004 | 0.24 | 0.068 | – | – | – | – | – | – | –
Cc1nn(-c2ccc(S(N)(=O)=O)cc2)c(C)c1S(N)(=O)=O [Compound 9b, 3,5-Dimethyl-1-(4-sulfamoylphenyl)-^1H-pyrazole-4-sulfonamide] | 272 to 274 | 0.33 | 0.005 | 0.111 | 0.035 | – | – | – | – | – | – | –
Cc1nn(-c2cc(S(N)(=O)=O)ccc2Cl)c(C)c1S(N)(=O)=O [Compound 9q, 1-(2-Chloro-5-sulfamoylphenyl)-3,5-dimethyl-^1H-pyrazole-4-sulfonamide] | 230 to 232 | 2.12 | 0.025 | 4.38 | > 10 | – | – | – | – | selective hCA II inhibitor | – | –
NS(=O)(=O)c1ccc(-n2cccn2)cc1 [Compound 7a, 4-(^1H-pyrazol-1-yl)benzenesulfonamide] | 323 to 325 | 4.78 | 0.072 | > 10 | 0.8 | – | – | – | – | – | – | –
Cc1ccc(-n2cccn2)cc1S(N)(=O)=O [Compound 7b, 2-Methyl-5-(^1H-pyrazol-1-yl)benzenesulfonamide] | 147 to 149 | > 10 | > 10 | 0.56 | > 10 | – | – | – | – | – | potent inhibition of hCA IV | high selectivity
Cc1cc(C)n(-c2ccc(S(N)(=O)=O)cc2)n1 [Compound 7o, 4-(3,5-Dimethyl-^1H-pyrazol-1-yl)benzenesulfonamide] | – | 0.462 | 0.004 | 0.084 | 0.017 | – | – | – | – | – | – | –
NS(=O)(=O)c1cnn(-c2ccc(Cl)c(S(N)(=O)=O)c2)c1 [Compound 9n, 1-(4-Chloro-3-sulfamoylphenyl)-^1H-pyrazole-4-sulfonamide] | 232 to 235 | 0.62 | 0.024 | 0.074 | 0.099 | – | – | – | – | – | – | –
COc1ccc(S(N)(=O)=O)cc1-n1cccn1 [Compound 7l, 4-Methoxy-3-(^1H-pyrazol-1-yl)benzenesulfonamide] | 255 to 257 | > 10 | 6.65 | > 10 | > 10 | – | – | – | – | – | – | –
NS(=O)(=O)c1ccc(Cl)c(-n2cccn2)c1 [Compound 7n, 4-Chloro-3-(^1H-pyrazol-1-yl)benzenesulfonamide] | 204 to 206 | 3.83 | 0.001 | 0.004 | 0.009 | – | – | – | – | – | – | –
Cc1nn(-c2ccc(Cl)c(S(N)(=O)=O)c2)c(C)c1S(N)(=O)=O [Compound 9m, 1-(4-Chloro-3-sulfamoylphenyl)-3,5-dimethyl-^1H-pyrazole-4-sulfonamide] | 241 to 243 | 0.89 | 0.04 | 0.077 | 0.65 | – | – | – | – | – | – | –
Cc1ccc(-n2nc(C)c(S(N)(=O)=O)c2C)cc1S(N)(=O)=O [Compound 9d, 3,5-Dimethyl-1-(4-methyl-3-sulfamoylphenyl)-^1H-pyrazole-4-sulfonamide] | – | > 10 | > 10 | – | > 10 | – | – | – | – | – | – | –
COc1ccc(-n2cccn2)cc1S(N)(=O)=O [Compound 7h] | – | – | – | – | – | > 10 | > 10 | > 10 | > 10 | – | loss of hCA IV inhibition activity | –

Source: publication PMC6445164, “Primary mono- and bis-sulfonamides obtained via regiospecific sulfochlorination of N-arylpyrazoles: inhibition profile against a panel of human carbonic anhydrases” (Journal of Enzyme Inhibition and Medicinal Chemistry, 2017)
